In ChEMBL document CHEMBL5154747, “Discovery of new carbonic anhydrase IX inhibitors as anticancer agents by toning the hydrophobic and hydrophilic rims of the active site to encounter the dual-tail approach” (Eur J Med Chem, 2022):
Activity calls are given as the source filed them. The rule behind the calls is not given here.

How the values were obtained:
SK-MEL-5 [1] = assay: Induction of apoptosis in human SK-MEL-5 cells assessed as caspase 9 activation incubated for 24 hrs by Western blotting analysis; assay type: functional, cell-based
SK-MEL-5 [2] = assay: Induction of apoptosis in human SK-MEL-5 cells assessed as caspase 3 activation incubated for 24 hrs by Western blotting analysis; assay type: functional, cell-based
SK-MEL-5 [3] = assay: Induction of ROS generation in human SK-MEL-5 cells assessed as increase in intracellular ROS level incubated for 1 hrs by H2DCFDA probe based fluorometry analysis relative to control; assay type: functional
SK-MEL-5 [4] = assay: Cytotoxicity against human SK-MEL-5 cells assessed as inhibition of cell viability incubated for 72 hrs under hypoxia condition by MTT assay; assay type: functional, cell-based; details: SK-MEL-5, 72 h
HCC 2998 = assay: Cytotoxicity against human HCC 2998 cells assessed as inhibition of cell viability incubated for 72 hrs under hypoxia condition by MTT assay; assay type: functional, cell-based; details: HCC 2998, 72 h
RXF 393 = assay: Cytotoxicity against human RXF 393 cells assessed as inhibition of cell viability incubated for 72 hrs under hypoxia condition by MTT assay; assay type: functional, cell-based; details: RXF 393, 72 h
[5] = Cytotoxicity against human HEK293 cells assessed as inhibition of cell viability by MTT assay
SK-MEL-5 [6] = assay: Induction of apoptosis in human SK-MEL-5 cells assessed as early apoptotic cells at 10 uM incubated for 24 hrs by Annexin-V/FITC and PI staining based flow cytometry analysis (reference value: 0.61 %); assay type: functional
SK-MEL-5 [7] = assay: Induction of apoptosis in human SK-MEL-5 cells assessed as late apoptotic cells at 10 uM incubated for 24 hrs by Annexin-V/FITC and PI staining based flow cytometry analysis (reference value: 0.26 %); assay type: functional
SK-MEL-5 [8] = assay: Induction of apoptosis in human SK-MEL-5 cells assessed as necrotic cells at 10 uM incubated for 24 hrs by Annexin-V/FITC and PI staining based flow cytometry analysis (reference value: 1.56 %); assay type: functional
SK-MEL-5 [9] = assay: Induction of cell cycle arrest in human SK-MEL-5 cells assessed as accumulation at pre G1 phase at 10 uM incubated for 24 hrs by FACSCalibur flow cytometry analysis (reference value: 2.43%); assay type: functional
SK-MEL-5 [10] = assay: Induction of cell cycle arrest in human SK-MEL-5 cells assessed as accumulation of diploid cells at G1 phase at 10 uM incubated for 24 hrs by FACSCalibur flow cytometry analysis (reference value: 69.23%); assay type: functional
SK-MEL-5 [11] = assay: Induction of cell cycle arrest in human SK-MEL-5 cells assessed as accumulation of diploid cells at G2/M phase at 10 uM incubated for 24 hrs by FACSCalibur flow cytometry analysis (reference value: 13.22%); assay type: functional
SK-MEL-5 [12] = assay: Induction of cell cycle arrest in human SK-MEL-5 cells assessed as accumulation of diploid cells at S phase at 10 uM incubated for 24 hrs by FACSCalibur flow cytometry analysis (reference value: 17.55%); assay type: functional
SK-MEL-5 [13] = assay: Induction of cell cycle arrest in human SK-MEL-5 cells assessed as cell aggregates at 10 uM incubated for 24 hrs by FACSCalibur flow cytometry analysis (reference value: 1.79%); assay type: functional
SK-MEL-5 [14] = assay: Induction of cell cycle arrest in human SK-MEL-5 cells assessed as cell debris at 10 uM incubated for 24 hrs by FACSCalibur flow cytometry analysis (reference value: 1.38%); assay type: functional

| Compound | Activity (SK-MEL-5 [1]) | Activity (SK-MEL-5 [2]) | Activity (SK-MEL-5 [3]) | IC50 (SK-MEL-5 [4]) | IC50 (HCC 2998) | IC50 (RXF 393) | IC50 [5] | Activity (SK-MEL-5 [6]) | Activity (SK-MEL-5 [7]) | Activity (SK-MEL-5 [8]) | Activity (SK-MEL-5 [9]) | Activity (SK-MEL-5 [10]) | Activity (SK-MEL-5 [11]) | Activity (SK-MEL-5 [12]) | Activity (SK-MEL-5 [13]) | Activity (SK-MEL-5 [14]) |
| --- | --- | --- | --- | --- | --- | --- | --- | --- | --- | --- | --- | --- | --- | --- | --- | --- |
| NS(=O)(=O)c1ccc(Nc2nc(N/N=C/c3ccccn3)nc(Nc3ccccc3)n2)cc1 | Active | Active | 23% | 8.33 µM | 1.93 µM | 3.11 µM | 45.6 µM | 4.28% | 24.97% | 7.99% | 37.24% | 58.78% | 8.81% | 32.41% | 1.85% | 1.42% |
| CN(C)c1ccc(/C=N/Nc2nc(Nc3ccccc3)nc(Nc3ccc(S(N)(=O)=O)cc3)n2)cc1 | – | – | – | – | – | 7.21 µM | 39.8 µM | – | – | – | – | – | – | – | – | – |
